In series [1] the target is T1, Tyrosine-protein kinase Mer (Homo sapiens, UniProt Q12866).
T1 sequence (Q12866 whole entry): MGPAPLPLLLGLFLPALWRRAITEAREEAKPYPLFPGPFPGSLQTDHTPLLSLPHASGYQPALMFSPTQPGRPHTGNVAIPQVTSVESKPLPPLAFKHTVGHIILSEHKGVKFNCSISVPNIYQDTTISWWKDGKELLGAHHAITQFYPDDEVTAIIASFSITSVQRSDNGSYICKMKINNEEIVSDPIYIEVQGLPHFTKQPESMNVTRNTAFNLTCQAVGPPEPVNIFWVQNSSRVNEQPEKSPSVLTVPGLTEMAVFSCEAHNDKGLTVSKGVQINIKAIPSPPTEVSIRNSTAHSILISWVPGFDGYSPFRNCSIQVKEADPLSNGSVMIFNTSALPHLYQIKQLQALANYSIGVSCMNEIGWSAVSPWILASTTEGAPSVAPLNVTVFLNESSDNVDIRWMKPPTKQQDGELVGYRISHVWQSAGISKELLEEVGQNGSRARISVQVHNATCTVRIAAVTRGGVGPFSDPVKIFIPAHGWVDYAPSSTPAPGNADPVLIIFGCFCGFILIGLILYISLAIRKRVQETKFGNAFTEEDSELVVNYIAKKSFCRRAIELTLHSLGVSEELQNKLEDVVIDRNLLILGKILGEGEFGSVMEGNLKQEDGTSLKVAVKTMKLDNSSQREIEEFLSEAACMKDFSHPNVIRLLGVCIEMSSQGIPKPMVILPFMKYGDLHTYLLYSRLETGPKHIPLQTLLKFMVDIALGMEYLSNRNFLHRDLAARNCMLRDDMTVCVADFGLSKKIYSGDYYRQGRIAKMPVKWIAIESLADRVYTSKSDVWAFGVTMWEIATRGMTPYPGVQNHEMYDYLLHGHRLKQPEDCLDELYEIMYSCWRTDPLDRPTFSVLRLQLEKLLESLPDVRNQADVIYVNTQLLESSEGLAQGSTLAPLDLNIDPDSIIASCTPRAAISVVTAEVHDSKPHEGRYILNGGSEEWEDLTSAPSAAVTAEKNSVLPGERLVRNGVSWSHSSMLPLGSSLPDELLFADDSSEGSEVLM
In words: Inhibition of MER (unknown origin) by LC-MS analysis.

Series [2] concerns the target T2, Receptor-type tyrosine-protein kinase FLT3 (Homo sapiens, UniProt P36888).
T2 sequence (P36888 whole entry): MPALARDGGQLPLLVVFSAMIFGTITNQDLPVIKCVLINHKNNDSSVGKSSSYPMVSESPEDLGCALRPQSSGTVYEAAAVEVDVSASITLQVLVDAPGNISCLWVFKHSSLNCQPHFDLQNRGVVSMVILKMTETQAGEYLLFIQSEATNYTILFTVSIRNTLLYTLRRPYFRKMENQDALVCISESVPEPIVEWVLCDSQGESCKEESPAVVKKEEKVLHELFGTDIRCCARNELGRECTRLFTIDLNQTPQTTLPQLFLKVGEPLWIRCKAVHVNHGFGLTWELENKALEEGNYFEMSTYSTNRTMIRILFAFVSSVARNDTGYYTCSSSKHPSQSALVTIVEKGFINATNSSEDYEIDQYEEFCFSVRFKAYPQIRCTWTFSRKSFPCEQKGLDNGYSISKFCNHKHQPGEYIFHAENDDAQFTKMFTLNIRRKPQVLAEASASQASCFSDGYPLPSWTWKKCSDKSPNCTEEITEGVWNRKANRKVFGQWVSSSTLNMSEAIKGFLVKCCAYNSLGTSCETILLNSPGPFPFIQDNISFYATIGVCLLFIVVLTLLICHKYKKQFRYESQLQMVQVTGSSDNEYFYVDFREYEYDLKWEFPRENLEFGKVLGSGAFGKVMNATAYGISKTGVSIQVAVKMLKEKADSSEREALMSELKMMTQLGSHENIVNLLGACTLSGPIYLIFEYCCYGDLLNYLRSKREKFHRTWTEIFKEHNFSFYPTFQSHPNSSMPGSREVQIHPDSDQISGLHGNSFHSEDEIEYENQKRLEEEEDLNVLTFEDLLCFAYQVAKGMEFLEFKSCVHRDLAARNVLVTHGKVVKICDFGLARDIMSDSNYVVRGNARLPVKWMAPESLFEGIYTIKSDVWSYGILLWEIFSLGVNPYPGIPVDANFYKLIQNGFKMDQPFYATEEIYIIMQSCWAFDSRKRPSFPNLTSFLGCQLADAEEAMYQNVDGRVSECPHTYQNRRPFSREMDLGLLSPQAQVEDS
The series is described as follows: Inhibition of FLT3 (unknown origin) by LC-MS analysis.

Series [3] can be described thus: Photostability of compound assessed as half life. The format is physicochemical.
Series [4] deals with BaF3. The series is described as follows: Growth inhibition of mouse BaF3 cells transfected with MER assessed as inhibition of cell growth incubated for 72 hrs by Cell-titer-Glo assay. The format is functional.
Series [5] has as its system BaF3. The series is described as follows: Growth inhibition of mouse BaF3 cells transfected with AXL assessed as inhibition of cell growth incubated for 72 hrs by Cell-titer-Glo assay. The format is functional.
For series [6], the system named is BaF3. The series is described as follows: Growth inhibition of mouse BaF3 cells transfected with FLT3 assessed as inhibition of cell growth incubated for 72 hrs by Cell-titer-Glo assay. The format is functional.
Series [7] concerns BaF3. The series is described as follows: Growth inhibition of mouse BaF3 cells transfected with Tyro3 assessed as inhibition of cell growth incubated for 72 hrs by Cell-titer-Glo assay. In kind it is functional.
Series [8] has as its system BaF3. In words: Growth inhibition of mouse BaF3 cells assessed as inhibition of cell growth incubated for 72 hrs by Cell-titer-Glo assay. The format is functional.
The test system of series [9] is BaF3. The series is described as follows: Antitumour activity against mouse BaF3 cells transfected with MER implanted in C57BL/6J mouse assessed as reduction in tumour growth at 100 mg/kg, po bid for 6 days. In kind it is functional, organism-based. As to conditions: time 6.0 day.
In series [10] the test system is BaF3. In words: Antitumour activity against mouse BaF3 cells transfected with AXL implanted in C57BL/6J mouse assessed as reduction in tumour growth at 3 to 100 mg/kg, po bid for 6 days. The note with it: dose 3-100 mg/kg, time 6.0 day. In kind it is functional, organism-based.
A short description of series [11]: Fraction unbound in C57BL/6J mouse implanted with mouse BaF3 cells transfected with MER in at 3 to 100 mg/kg, po bid for 6 days. As to conditions: in vivo, dose 3-100 mg/kg, time 6 day. The format is ADME, organism-based.
Series [12] can be described thus: Fraction unbound in C57BL/6J mouse implanted with mouse BaF3 cells transfected with AXL in at 3 to 100 mg/kg, po bid for 6 days. The format is ADME, organism-based. As to conditions: in vivo, dose 3-100 mg/kg, time 6 day.
Series [13] relates to BaF3. In words: Antitumour activity against mouse BaF3 cells transfected with MER implanted in C57BL/6J mouse assessed as reduction in MER phosphorylation at 30 to 100 mg/kg, po bid for 6 days by western blot analysis. In kind it is functional, organism-based. The note with it: dose 30-100 mg/kg, time 6.0 day.
The subject of series [14] is BaF3. The series is described as follows: Antitumour activity against mouse BaF3 cells transfected with AXL implanted in C57BL/6J mouse assessed as reduction in AXL phosphorylation at 30 to 100 mg/kg, po bid for 6 days western blot analysis. The format is functional, organism-based. As to conditions: dose 30-100 mg/kg, time 6.0 day.
Another series concerns MC-38. The series is described as follows: Antitumour activity against mouse MC38 cells implanted in C57BL6 mouse assessed as increase in survival at 100 mg/kg, po bid for 2 weeks co-treatment with anti-PD1 further treated with ionizing radiation. In kind it is functional, organism-based.

Calls of active or inactive are those of the source. The calls are words filed in the database; no cut-off is given here.

For `Cc1cc(-c2c(C)nn(C)c2C)cnc1-c1nnc(N(C)Cc2ccc3nccn3c2)o1`, the concentration for half-maximal inhibition (IC50) in [1] was 100 nM; in [2], 20 µM.

Turning to `Cc1cc(-c2c(C)nn(C)c2C)ccc1-c1nnc(N(C)Cc2ccc3nccn3c2)o1`, the IC50 is 3.16 nM in series [1] and 15.8 µM in [2]. Further, in series [3], the half-life was 2.88 days.

With `Cc1cc(-c2c(C)nn(C)c2C)cnc1-c1nnc(N(C)Cc2ccc3ncc(-c4ccc(CN(C)C)cc4)n3c2)o1`, the concentration for 50% growth inhibition (GI50) in the series with BaF3 [4] is 25.1 nM; in the series with BaF3 [5], 100 nM; in the series with BaF3 [6], 3.16 µM; in the series with BaF3 [7], 5.01 µM; in the series with BaF3 [8], 3.98 µM. The result in the series on BaF3 [9], in the series with BaF3 [10], in the series on BaF3 [13], in the series on BaF3 [14] and with MC-38 was Active. Further, the unbound share (fraction unbound) at 144 h in series [11] and in series [12] was 0.076 in each case.
